Test results reported in ChEMBL document CHEMBL1201862, “PubChem BioAssay data set” (2004).
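Dose response: 5 concentrations. Exposure: 48 h. Format: 96-well plates. Endpoint: linear interpolation; highest concentration if not reached. Abbreviation: GI50, concentration required for 50% inhibition of growth.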 The source made the active and inactive calls. No stated cut-off is given here; in the data, active = GI50 up to about 1.1 µM and inactive = higher.

Experiments:
Test in all cases: growth of human tumour cells (NCI), 48 h
[1] = tested on: A498
[2] = tested on: HCT-116
[3] = tested on: HCT-15
[4] = tested on: HOP-62
[5] = tested on: IGROV-1
[6] = tested on: M14
[7] = tested on: MDA-MB-435
[8] = tested on: NCI-H23
[9] = tested on: NCI-H460
[10] = tested on: NCI-H522
[11] = tested on: OVCAR-3
[12] = tested on: OVCAR-4
[13] = tested on: OVCAR-5
[14] = tested on: OVCAR-8
[15] = tested on: SF-539
[16] = tested on: SN12C
[17] = tested on: SNB-19
[18] = tested on: SNB-75
[19] = tested on: U-251
[20] = tested on: UO-31

Row | Compound | GI50 [1] | GI50 [2] | GI50 [3] [µM] | GI50 [4] | GI50 [5] | GI50 [6] | GI50 [7] | GI50 [8] | GI50 [9] | GI50 [10] | GI50 [11] | GI50 [12] | GI50 [13] | GI50 [14] | GI50 [15] | GI50 [16] | GI50 [17] | GI50 [18] | GI50 [19] | GI50 [20]
1 | C[As+](C)(c1ccc(Br)c([N+](=O)[O-])c1)c1ccc(Br)c([N+](=O)[O-])c1 | > 100 µM (inactive) | > 100 µM (inactive) | > 100 | > 100 µM (inactive) | > 100 µM (inactive) | > 100 µM (inactive) | > 100 µM (inactive) | > 100 µM (inactive) | > 100 µM (inactive) | 87.7 µM (inactive) | > 100 µM (inactive) | > 100 µM (inactive) | > 100 µM (inactive) | > 100 µM (inactive) | > 100 µM (inactive) | > 100 µM (inactive) | > 100 µM (inactive) | > 100 µM (inactive) | > 100 µM (inactive) | > 100 µM (inactive)
2 | CCCCCCCCCCCCCCC(O)C[N+](C)(CCO)CCO (configuration not stated) | 4.99 µM (inactive) | 5.79 µM (inactive) | 5.96 | 2.19 µM (inactive) | 1.15 µM (inactive) | 1.59 µM (inactive) | 6.12 µM (inactive) | 4.49 µM (inactive) | 2.56 µM (inactive) | 1.64 µM (inactive) | 3.13 µM (inactive) | 3.73 µM (inactive) | 2.46 µM (inactive) | 4.11 µM (inactive) | 2.4 µM (inactive) | 4.7 µM (inactive) | 1.49 µM (inactive) | 0.746 µM (active) | 1.53 µM (inactive) | 4.27 µM (inactive)
3 | COC(=O)/C=C(/C=C1/C(C#N)=C(N)N(c2ccc(Cl)cc2)C1(C)/C(=C/C(=O)OC)C(=O)OC)C(=O)OC (configuration not stated) | 49.5 µM (inactive) | 28.9 µM (inactive) | 23.8 | > 100 µM (inactive) | 27.6 µM (inactive) | 76.9 µM (inactive) | 52.4 µM (inactive) | 42.3 µM (inactive) | 40.6 µM (inactive) | 33.2 µM (inactive) | 81.8 µM (inactive) | > 100 µM (inactive) | > 100 µM (inactive) | 33.5 µM (inactive) | > 100 µM (inactive) | 35.8 µM (inactive) | > 100 µM (inactive) | 20.5 µM (inactive) | 41.4 µM (inactive) | 64.1 µM (inactive)
4 | O=C1C(Cl)C(c2cc3cc(Br)ccc3nc2Cl)N1c1ccc(Cl)cc1 (configuration not stated) | 16.5 µM (inactive) | 5.31 µM (inactive) | 4.86 | 9.68 µM (inactive) | 3.02 µM (inactive) | 5.85 µM (inactive) | 5.82 µM (inactive) | 5.7 µM (inactive) | 6.59 µM (inactive) | 3.95 µM (inactive) | 5.41 µM (inactive) | 4.46 µM (inactive) | 10.7 µM (inactive) | 5.9 µM (inactive) | 4.33 µM (inactive) | 4.45 µM (inactive) | 8.43 µM (inactive) | 7.83 µM (inactive) |  | 0.815 µM (active)
5 | Cc1ccccc1NC(=O)O/N=C(\Cl)C(C)C | 17.9 µM (inactive) | 2.18 µM (inactive) | 2.09 | 17.3 µM (inactive) | 9.42 µM (inactive) | 3.22 µM (inactive) | 13.2 µM (inactive) | 16.7 µM (inactive) | 17.8 µM (inactive) | 1.68 µM (inactive) | 4.29 µM (inactive) | 8.45 µM (inactive) | 20.9 µM (inactive) | 17.5 µM (inactive) | 9.08 µM (inactive) | 1.62 µM (inactive) | 20.8 µM (inactive) | 17.1 µM (inactive) | 19.4 µM (inactive) | 17.4 µM (inactive)
6 | COC(=O)c1ccccc1/C=C1\Cc2cc(C)c(C)cc2C1=O | 73.3 µM (inactive) | > 100 µM (inactive) | > 100 | 30.4 µM (inactive) | > 100 µM (inactive) | > 100 µM (inactive) | > 100 µM (inactive) |  | > 100 µM (inactive) | 73.8 µM (inactive) | > 100 µM (inactive) | > 100 µM (inactive) | > 100 µM (inactive) | 55.7 µM (inactive) | > 100 µM (inactive) | > 100 µM (inactive) | 33.4 µM (inactive) | 26.5 µM (inactive) | 27.1 µM (inactive) | 84.1 µM (inactive)
7 | CN(N=O)C(=O)NNC(=O)N(C)N=O | > 100 µM (inactive) | 74 µM (inactive) | 37.9 | > 100 µM (inactive) | 65.8 µM (inactive) | 93.5 µM (inactive) | > 100 µM (inactive) | 71.8 µM (inactive) | 42.4 µM (inactive) | 27 µM (inactive) | > 100 µM (inactive) | > 100 µM (inactive) | > 100 µM (inactive) | 55.3 µM (inactive) | 49.1 µM (inactive) | > 100 µM (inactive) | > 100 µM (inactive) | > 100 µM (inactive) | 52.5 µM (inactive) | 83.9 µM (inactive)
8 | C=C(C(=O)OC)c1cc2ccccc2n1S(=O)(=O)c1ccccc1 | 2.15 µM (inactive) | 6.55 µM (inactive) | 1.76 | 3.43 µM (inactive) | 1.55 µM (inactive) | 2.67 µM (inactive) | 2.55 µM (inactive) | 3.44 µM (inactive) | 2.21 µM (inactive) | 0.891 µM (active) | 3.4 µM (inactive) | 4.82 µM (inactive) | 5.68 µM (inactive) | 2.44 µM (inactive) | 1.62 µM (inactive) | 2.67 µM (inactive) | 12.1 µM (inactive) | 3.3 µM (inactive) | 1.92 µM (inactive) | 2.36 µM (inactive)
9 | COC(=O)Nc1nc2cc(NS(=O)(=O)c3ccc(F)cc3)ccc2[nH]1 | 11.3 µM (inactive) | 4.54 µM (inactive) | 8.22 | 43.3 µM (inactive) | 2.15 µM (inactive) | 7.48 µM (inactive) | 2.65 µM (inactive) | 21.8 µM (inactive) | 24.7 µM (inactive) | 2.1 µM (inactive) | 2.8 µM (inactive) | 33.9 µM (inactive) | 45.2 µM (inactive) | 35 µM (inactive) | 12.2 µM (inactive) | 68.9 µM (inactive) | 6.46 µM (inactive) | 6.49 µM (inactive) | 19.1 µM (inactive) | 37.6 µM (inactive)
10 | CCNc1ccc2c(c1)Cc1ccccc1-2 | 43.3 µM (inactive) | > 100 µM (inactive) | 7.38 | > 100 µM (inactive) | 37 µM (inactive) | 66.5 µM (inactive) | 49.5 µM (inactive) | 14.3 µM (inactive) | 18 µM (inactive) | 32.7 µM (inactive) | 29 µM (inactive) | 75.3 µM (inactive) | > 100 µM (inactive) | 51.5 µM (inactive) | 43.8 µM (inactive) | 64 µM (inactive) | 48.1 µM (inactive) | > 100 µM (inactive) | 44.3 µM (inactive) | 52.4 µM (inactive)
11 | CSCCC(C(=O)O)N(C)C (configuration not stated) | > 100 µM (inactive) | > 100 µM (inactive) | > 100 | > 100 µM (inactive) | > 100 µM (inactive) | > 100 µM (inactive) | > 100 µM (inactive) | > 100 µM (inactive) | > 100 µM (inactive) | > 100 µM (inactive) | > 100 µM (inactive) | > 100 µM (inactive) | > 100 µM (inactive) | > 100 µM (inactive) | > 100 µM (inactive) | > 100 µM (inactive) | > 100 µM (inactive) | > 100 µM (inactive) | > 100 µM (inactive) | > 100 µM (inactive)
12 | O=C1c2c(Br)sc(Br)c2[C@@H](NC(=O)C(F)(F)F)C1Br (some centres not stated) | 15.3 µM (inactive) |  | 1.83 | 12.9 µM (inactive) | 2.92 µM (inactive) | 2.34 µM (inactive) | 2.13 µM (inactive) | 2.53 µM (inactive) | 11.7 µM (inactive) | 2.03 µM (inactive) | 3.32 µM (inactive) | 2.31 µM (inactive) | 10.7 µM (inactive) | 2.68 µM (inactive) | 2.73 µM (inactive) | 2.72 µM (inactive) | 13 µM (inactive) | 4.92 µM (inactive) | 2.93 µM (inactive) | 5.92 µM (inactive)
13 | C[n+]1c(-c2ccc(NC(=O)c3ccc(C(=O)Nc4ccc(-c5cn6ccccc6[n+]5C)cc4)cc3)cc2)cn2ccccc21 | 39.1 µM (inactive) | > 100 µM (inactive) | > 100 | > 100 µM (inactive) | > 66.5 µM (inactive) | > 100 µM (inactive) | > 67.3 µM (inactive) | > 100 µM (inactive) | > 100 µM (inactive) | > 100 µM (inactive) | > 100 µM (inactive) | > 100 µM (inactive) | > 100 µM (inactive) | > 100 µM (inactive) | > 70.5 µM (inactive) | > 66.1 µM (inactive) | > 100 µM (inactive) | 60.8 µM (inactive) | > 73.3 µM (inactive) | > 100 µM (inactive)
14 | COc1ccc(-c2cc(=O)c3c(OC)c(OC)c(OC)cc3o2)cc1 | 19.8 µM (inactive) | 32.6 µM (inactive) | 32.7 | 21.1 µM (inactive) | 37.9 µM (inactive) | 54.8 µM (inactive) | 32.2 µM (inactive) | 40.6 µM (inactive) | 24 µM (inactive) | 23.7 µM (inactive) | 26.8 µM (inactive) | 24.2 µM (inactive) | 44 µM (inactive) | 35.2 µM (inactive) | 81.8 µM (inactive) | 25.2 µM (inactive) | 45 µM (inactive) | 26.9 µM (inactive) | 26.3 µM (inactive) | 19 µM (inactive)
